In ChEMBL document CHEMBL4418316, “Oxazole derivatives for use in the treatment of cancer” (2018):

Columns and labels:
[1] = Antiproliferative activity against mouse LM2 cells after 72 hrs by Celltiter-glo luminescence assay; type: functional, cell-based
MDA-MB-231 = assay: Antiproliferative activity against human MDA-MB-231 cells after 72 hrs by Celltiter-glo luminescence assay; type: functional, cell-based; settings: MDA-MB-231, 72 h
[2] = Ratio of EC50 for CRISPR PAICS knock out mouse LM2 cells to EC50 for mouse wild type LM2 cells; type: functional

| Compound | EC50 [1] [nM] | EC50 (MDA-MB-231) [nM] | Ratio EC50 [2] |
| --- | --- | --- | --- |
| CNC1CCN(Cc2ncc(-c3ccc(Cl)c(NC(=O)c4coc(N)n4)c3)s2)CC1 | < 100 | – | – |
| Nc1nc(C(=O)Nc2cc(-c3cnn(C4CCCNC4)c3)ccc2Cl)co1 (configuration not stated) | 100 to 250 | – | – |
| Nc1nc(C(=O)Nc2cc(-c3ccc(OC4CCNC4)nc3)ccc2Cl)co1 (configuration not stated) | 250 to 500 | – | – |
| Nc1nc(C(=O)Nc2cc(-c3ccc(CN4CCNCC4)cc3)ccc2Cl)co1 | 250 to 500 | – | – |
| CSc1ccc(-c2cnc(OCCCN(C)C)s2)cc1NC(=O)c1coc(N)n1 | 100 to 250 | – | – |
| CN1CCC(n2cc(-c3ccc(Cl)c(NC(=O)c4coc(N)n4)c3)cn2)CC1 | 100 to 250 | – | – |
| CC(C)NCCCOc1ccc(-c2ccc(Cl)c(NC(=O)c3coc(N)n3)c2)cn1 | 100 to 250 | – | – |
| CN1CC(n2cc(-c3ccc(Cl)c(NC(=O)c4coc(N)n4)c3)cn2)C1 | 100 to 250 | – | – |
| CN(C)CCCOc1nc(-c2ccc(Cl)c(NC(=O)c3coc(N)n3)c2)cs1 | 250 to 500 | 250 to 500 | – |
| CN1CCN(Cc2ccc(-c3ccc(Cl)c(NC(=O)c4coc(N)n4)c3)cn2)CC1 | 250 to 500 | – | – |
| Nc1nc(C(=O)Nc2cc(-c3cnc(CN4CCNCC4)s3)ccc2Cl)co1 | 100 to 250 | – | – |
| CN(C)CCOc1ccc(-c2ccc(Cl)c(NC(=O)c3coc(N)n3)c2)cc1 | 100 to 250 | – | – |
| CCNCCCn1cc(-c2ccc(Cl)c(NC(=O)c3coc(N)n3)c2)cn1 | < 100 | – | >80 |
| Nc1nc(C(=O)Nc2cc(-c3cnn(CCCN4CCNCC4)c3)ccc2Cl)co1 | 100 to 250 | – | – |
| CN1CCN(c2ncc(-c3ccc(Cl)c(NC(=O)c4coc(N)n4)c3)s2)CC1 | 100 to 250 | – | – |
| Nc1nc(C(=O)Nc2cc(-c3cnn(C4CCNCC4)c3)ccc2Cl)co1 | 250 to 500 | – | – |
| CCN(CC)CCCOc1ncc(-c2ccc(Cl)c(NC(=O)c3coc(N)n3)c2)s1 | < 100 | – | – |
| CN(C)CCOc1ncc(-c2ccc(Cl)c(NC(=O)c3coc(N)n3)c2)cn1 | 250 to 500 | – | – |
| Nc1nc(C(=O)Nc2cc(-c3ccn(C4CCNCC4)n3)ccc2Cl)co1 | 250 to 500 | – | – |
| CN1CCN(CCn2cc(-c3ccc(Cl)c(NC(=O)c4coc(N)n4)c3)cn2)CC1 | 250 to 500 | – | – |
| CCNCCn1cc(-c2ccc(Cl)c(NC(=O)c3coc(N)n3)c2)cn1 | 100 to 250 | – | – |

| Compound | EC50 [1] [nM] | EC50 (MDA-MB-231) [nM] | Ratio EC50 [2] |
| --- | --- | --- | --- |
| CSc1ccc(-c2nc(CN3CCNCC3)cs2)cc1NC(=O)c1coc(N)n1 | < 100 | – | – |
| CNC1CCCN(Cc2csc(-c3ccc(Cl)c(NC(=O)c4coc(N)n4)c3)n2)C1 (configuration not stated) | < 100 | – | – |
| CSc1ccc(-c2ccc(OCCCN(C)C)nc2)cc1NC(=O)c1coc(N)n1 | 250 to 500 | – | – |
| Nc1nc(C(=O)Nc2cc(-c3nc(CN4CCNCC4)cs3)ccc2Cl)co1 | < 100 | – | – |
| Nc1nc(C(=O)Nc2cc(-c3ccc(CN[C@H]4CC[C@H](N)CC4)nc3)ccc2Cl)co1 | 250 to 500 | – | – |
| CN(C)CCCc1ncc(-c2ccc(Cl)c(NC(=O)c3coc(N)n3)c2)s1 | < 100 | – | – |
| CN1CCC(NC(=O)Cn2cc(-c3ccc(Cl)c(NC(=O)c4coc(N)n4)c3)cn2)CC1 | 250 to 500 | – | – |
| Nc1nc(C(=O)Nc2cc(-c3ccc(OCC4CCCNC4)nc3)ccc2Cl)co1 (configuration not stated) | 250 to 500 | – | – |
| CN(C)CCCOc1ccc(-c2ccc(Cl)c(NC(=O)c3coc(N)n3)c2)nc1 | 250 to 500 | – | – |
| CN(C)CCOc1ccc(-c2ccc(Cl)c(NC(=O)c3coc(N)n3)c2)cn1 | 250 to 500 | – | – |
| CNCCCOc1ccc(-c2ccc(Cl)c(NC(=O)c3coc(N)n3)c2)cn1 | 100 to 250 | – | – |
| CN(C)CCC(=O)N1CC(Cn2cc(-c3ccc(Cl)c(NC(=O)c4coc(N)n4)c3)cn2)C1 | 250 to 500 | – | – |
| Nc1nc(C(=O)Nc2cc(-c3cnc(OC4CCNCC4)s3)ccc2Cl)co1 | < 100 | – | – |
| CN(C)CCC(=O)N1CCC(n2cc(-c3ccc(Cl)c(NC(=O)c4coc(N)n4)c3)cn2)CC1 | 250 to 500 | – | – |
| Nc1nc(C(=O)Nc2cc(-c3cnc(OC4CCNCC4)nc3)ccc2Cl)co1 | 250 to 500 | – | – |
| Nc1nc(C(=O)Nc2cc(-c3ccc(CN4CCNCC4)nc3)ccc2Cl)co1 | 250 to 500 | – | – |
| CN(C)CCCOc1ncc(-c2ccc(Cl)c(NC(=O)c3coc(N)n3)c2)s1 | < 100 | – | >30 |
| Nc1nc(C(=O)Nc2cc(-c3ccc(OC4CCNCC4)nc3)ccc2Cl)co1 | 250 to 500 | – | – |
| CNCCn1cc(-c2ccc(Cl)c(NC(=O)c3coc(N)n3)c2)cn1 | 100 to 250 | – | – |
| CN(C)C1CCN(Cc2csc(-c3ccc(Cl)c(NC(=O)c4coc(N)n4)c3)n2)CC1 | 100 to 250 | – | – |
| CNCCCn1cc(-c2ccc(Cl)c(NC(=O)c3coc(N)n3)c2)cn1 | < 100 | – | – |

| Compound | EC50 [1] [nM] | EC50 (MDA-MB-231) [nM] | Ratio EC50 [2] |
| --- | --- | --- | --- |
| CN(C)CCCOc1ccc(-c2ccc(Cl)c(NC(=O)c3coc(N)n3)c2)cn1 | 100 to 250 | – | – |
| CN(C)C1CCN(C(=O)Cn2cc(-c3ccc(Cl)c(NC(=O)c4coc(N)n4)c3)cn2)CC1 | 250 to 500 | – | – |
| Nc1nc(C(=O)Nc2cc(-c3ccc(N4CCNCC4)cc3)ccc2Cl)co1 | 250 to 500 | – | – |
| CN(C)CCCC(=O)N1CCC(n2cc(-c3ccc(Cl)c(NC(=O)c4coc(N)n4)c3)cn2)CC1 | 250 to 500 | – | – |
| CN1CCN(CCCn2cc(-c3ccc(Cl)c(NC(=O)c4coc(N)n4)c3)cn2)CC1 | 100 to 250 | – | – |
| Nc1nc(C(=O)Nc2cc(-c3ccc(CN4CC5CNCC5C4)nc3)ccc2Cl)co1 (configuration not stated) | 250 to 500 | – | – |
| CN(C)CC(=O)N1CCC(n2cc(-c3ccc(Cl)c(NC(=O)c4coc(N)n4)c3)cn2)CC1 | 100 to 250 | – | – |
| N#Cc1nn(C2CCNCC2)cc1-c1ccc(Cl)c(NC(=O)c2coc(N)n2)c1 | 100 to 250 | – | – |
| CN1CCN(c2ccc(-c3ccc(Cl)c(NC(=O)c4coc(N)n4)c3)cn2)CC1 | 100 to 250 | – | >10 |
| Nc1nc(C(=O)Nc2cc(-c3cnn(C4CCN(CCO)CC4)c3)ccc2Cl)co1 | 100 to 250 | – | – |
| CC1CN(C(=O)Cn2cc(-c3ccc(Cl)c(NC(=O)c4coc(N)n4)c3)cn2)CCN1 (configuration not stated) | 250 to 500 | – | – |
| CN(C)CCCn1cc(-c2ccc(Cl)c(NC(=O)c3coc(N)n3)c2)cn1 | 100 to 250 | – | – |
| CN1CCC(NCc2ccc(-c3ccc(Cl)c(NC(=O)c4coc(N)n4)c3)cn2)CC1 | 100 to 250 | – | – |
| Nc1nc(C(=O)Nc2cc(-c3cnn(C4CCNC4)c3)ccc2Cl)co1 (configuration not stated) | 100 to 250 | – | – |
| Cc1nn(C2CCNCC2)cc1-c1ccc(Cl)c(NC(=O)c2coc(N)n2)c1 | 100 to 250 | – | – |
| CNC1CCCN(Cc2ncc(-c3ccc(Cl)c(NC(=O)c4coc(N)n4)c3)s2)C1 (configuration not stated) | 100 to 250 | – | – |
| Nc1nc(C(=O)Nc2cc(-c3cnn(CCN4CCNCC4)c3)ccc2Cl)co1 | 250 to 500 | – | – |
| CNCC1CCN(Cc2ncc(-c3ccc(Cl)c(NC(=O)c4coc(N)n4)c3)s2)CC1 | < 100 | – | – |
| CN(C)CCNC(=O)Cn1cc(-c2ccc(Cl)c(NC(=O)c3coc(N)n3)c2)cn1 | 250 to 500 | – | – |
| Nc1nc(C(=O)Nc2cc(-c3cnn(CCCNC4CC4)c3)ccc2Cl)co1 | 100 to 250 | – | – |
| CNC1CCC(n2cc(-c3ccc(Cl)c(NC(=O)c4coc(N)n4)c3)cn2)CC1 (mixture of isomers) | < 100 | – | – |
